The text below walks through data of patent US20060252800A1, “Anti-leishmania agent” (priority 2003, published 2006).

For orientation: melting point means the temperature of the solid-liquid transition.

The subject of data set [1] is Leishmania (L. major). The data set is described as follows: Leishmania protozoa proliferation inhibition assay. It counts as cell-based. The following applies: for OD level (number of viable Leishmania protozoa): 48 hours at 27° C., absorbance 450 nm minus 630 nm; for IC50: calculated from the graphs of FIGS. 1 to 4 (concentration vs number of viable leishmania protozoa), read-out: Concentration inhibiting 50% leishmania proliferation. As to the method:
After dissolving each of the obtained compounds in dimethylsulfoxide (hereinafter referred to as DMSO), the resultant was diluted by 9 steps in Medium 199 medium (Invitrogen) to the indicated concentration, filtrated with a membrane filter, and each of the filtration was made as a sample solution. […] By keeping the solution at 27° C., incubation was performed under 5% CO2, for 48 hours. Then, TetraColor ONE (tradename: Seikagaku Corporation) reagent was added thereto and further incubated for 6 hours. Then, the absorbance at a wavelength of 450 nm was measured for the 96-well microtiter plate with a microplate reader, the wave length of 630 nm was made as reference wave length, and in order to exclude background effect, the absorbance at 630 nm was excluded from the one at 450 nm, and the OD level was calculated as a level to indicate the number of viable Leishmania protozoa. The assay was performed by three wells at a time for each concentration of each sample, and the mean level was made as OD level. […] Amphotericin B was used as positive control. […] Inhibiting effect against […] protozoa for each sample was similar or more compared with that of Amtephotericin B.

The mark [2] stands for this setting: Table 2, sample concentration 0.0001 mg/ml.
Setting [3] is: Table 2, sample concentration 0.0007 mg/ml.
Setting [4] is: Table 2, sample concentration 0.002 mg/ml.
Setting [5] is: Table 2, sample concentration 0.008 mg/ml.
[6] abbreviates: Table 2, sample concentration 0.025 mg/ml.
Where [7] appears, read: Table 2, sample concentration 0.084 mg/ml.
Setting [8] is: Table 2, sample concentration 0.279 mg/ml.
Where [9] appears, read: Table 2, sample concentration 0.93 mg/ml.
The mark [10] stands for this setting: Table 2, sample concentration 3.1 mg/ml.
Where [11] appears, read: Table 2, sample concentration 2E−04 mg/ml.
The mark [12] stands for this setting: Table 1, sample concentration 0.001 mg/ml.
Setting [13] is: Table 1, sample concentration 0.016384 mg/ml.
Where [14] appears, read: Table 1, sample concentration 0.04096 mg/ml.
[15] abbreviates: Table 1, sample concentration 0.1024 mg/ml.
Setting [16] is: Table 1, sample concentration 0.256 mg/ml.
Where [17] appears, read: Table 1, sample concentration 0.64 mg/ml.
Where [18] appears, read: Table 1, sample concentration 1.6 mg/ml.
Where [19] appears, read: Table 1, sample concentration 4 mg/ml.
Setting [20] is: Table 1, sample concentration 10 mg/ml.
The mark [21] stands for this setting: Table 1, sample concentration 25 mg/ml, mean of three wells.
[22] abbreviates: Table 3, sample concentration 0.001 mg/ml.
Setting [23] is: Table 3, sample concentration 0.002165 mg/ml.
Where [24] appears, read: Table 3, sample concentration 0.0072171 mg/ml.
The mark [25] stands for this setting: Table 3, sample concentration 0.02406 mg/ml.
Where [26] appears, read: Table 3, sample concentration 0.08019 mg/ml.
The mark [27] stands for this setting: Table 3, sample concentration 0.2673 mg/ml.
[28] abbreviates: Table 3, sample concentration 0.891 mg/ml.
Where [29] appears, read: Table 3, sample concentration 2.97 mg/ml.
Where [30] appears, read: Table 3, sample concentration 9.9 mg/ml.
Setting [31] is: Table 3, sample concentration 33 mg/ml.

On to `CCCC[n+]1ccc(/C=c2\s/c(=C3/Sc4ccccc4N3C)c(=O)n2CC)cc1.[Br-]` [I (b), 1-butyl-4-[3-ethyl-{5-(3-methyl-2(3H)-benzothiazolylidene)-4-oxo-2-thiazolidinylidene}methyl]pyridinium=bromide], for which the melting point fell in the range of 299 to 300 °C. The “OD level (number of viable Leishmania protozoa)” value (shortened to “OD level”) in data set [1] (setting [2]) came out at 0.363. For the same compound, the “OD level” value in data set [1] (setting [3]) came to 0.345. For the same compound, the “OD level” value in data set [1] (setting [4]) is listed as 0.335. The “OD level” value in data set [1] (setting [5]) stood at 0.335. For the same compound, in data set [1] (setting [6]), the “OD level” value stood at 0.435. Further, in data set [1] (setting [7]), the “OD level” value was 0.465. Further, the “OD level” value in data set [1] (setting [8]) was found to be 0.106. For the same compound, in data set [1] (setting [9]), the “OD level” value is reported as 0.032. In addition, in data set [1] (setting [10]), the “OD level” value is 0.032. In addition, the “OD level” value in data set [1] (setting [11]) came to 0.343. The IC50 in data set [1] is 3700 nM.

Take `C=CCn1c(=Cc2cccc[n+]2C)sc(=C2Sc3ccccc3N2C)c1=O.Cc1ccc(S(=O)(=O)[O-])cc1` [IV (a), 2-[{5-(3-methyl-2(3H)-benzothiazolylidene)-4-oxo-3-(2-propenyl)-2-thiazolidinylidene}methyl]-1-methylpyridinium=p-toluenesulfonate]: the “OD level” value in data set [1] (setting [12]) turned out to be 0.470; in data set [1] (setting [13]) it was 0.541; in data set [1] (setting [14]), 0.488; in data set [1] (setting [15]), 0.385; in data set [1] (setting [16]), 0.157; in data set [1] (setting [17]), 0.095. The “OD level” value in data set [1] (setting [18]) was 0.047; in data set [1] (setting [19]), 0.035; in data set [1] (setting [20]) it was 0.031; in data set [1] (setting [21]), 0.032. Further, the IC50 in data set [1] was 320 nM.

In the case of `CCn1c(=Cc2cc[n+](C)c3ccccc23)sc(=C2Sc3ccccc3N2C)c1=O.Cc1ccc(S(=O)(=O)[O-])cc1` [IV (b), 4-[{5-(3-methyl-2(3H)-benzothiazolylidene)-4-oxo-3-ethyl-2-thiazolidinylidene}methyl]-1-methylquinolium=p-toluene sulfonate], the “OD level” value in data set [1] (setting [2]) is recorded as 0.361; in data set [1] (setting [3]), 0.354; in data set [1] (setting [4]) it was 0.362; in data set [1] (setting [5]), 0.380; in data set [1] (setting [6]) it was 0.409; in data set [1] (setting [7]) it was 0.211. In addition, the “OD level” value in data set [1] (setting [8]) is given as 0.102; in data set [1] (setting [9]) it was 0.044; in data set [1] (setting [10]), 0.037; in data set [1] (setting [11]), 0.351.

With `CCn1c(=Cc2ccc3ccccc3[n+]2C)sc(=C2Sc3ccccc3N2C)c1=O.[I-]` [IV (c), 2-[{5-(3-methyl-2(3H)-benzothiazolylidene)-4-oxo-3-ethyl-2-thiazolidinylidene}methyl]-1-methylquinolinium=iodide], the “OD level” value is on record as 0.472 in data set [1] (setting [12]); 0.470 in data set [1] (setting [13]); 0.474 in data set [1] (setting [14]); 0.496 in data set [1] (setting [15]); 0.398 in data set [1] (setting [16]); 0.158 in data set [1] (setting [17]). Also, the “OD level” value in data set [1] (setting [18]) was 0.117; in data set [1] (setting [19]), 0.069; in data set [1] (setting [20]), 0.032; in data set [1] (setting [21]) it was 0.032. Also, the IC50 in data set [1] was 820 nM.

Take `CCn1c(=O)/c(=C2\Sc3ccccc3N2C)s/c1=C\c1cccc[n+]1Cc1ccc(C(=O)O)cc1.[Br-]` [I (d), 1-(p-carboxyphenyl)methyl-2-[3-ethyl-{5-(3-methyl-2(3H)-benzothiazolylidene)-4-oxo-2-thiazolidinylidene}methyl]pyridinium=bromide]: the “OD level” value turned out to be 0.360 in data set [1] (setting [2]); 0.359 in data set [1] (setting [3]); 0.348 in data set [1] (setting [4]); 0.364 in data set [1] (setting [5]); 0.384 in data set [1] (setting [6]); 0.346 in data set [1] (setting [7]). Also, the “OD level” value in data set [1] (setting [8]) is 0.360; in data set [1] (setting [9]) it was 0.333; in data set [1] (setting [10]), 0.242; in data set [1] (setting [11]) it was 0.356. Besides, the IC50 in data set [1] was 5300 nM.

Turning to `CCn1c(=Cc2cccc[n+]2C)sc(=C2Sc3ccc(Cl)cc3N2C)c1=O.Cc1ccc(S(=O)(=O)[O-])cc1` [IV (f), 2-[{5-(5-chloro-3-methyl-2(3H)-benzothiazolylidene)-4-oxo-3-ethyl-2-thiazolidinylidene}methyl]-1-methylpyridinium=p-toluenesulfonate], the “OD level” value was found to be 0.352 in data set [1] (setting [22]); 0.388 in data set [1] (setting [23]); 0.369 in data set [1] (setting [24]); 0.384 in data set [1] (setting [25]); 0.428 in data set [1] (setting [26]); 0.214 in data set [1] (setting [27]). Also, the “OD level” value came to 0.116 in data set [1] (setting [28]), 0.081 in data set [1] (setting [29]), 0.064 in data set [1] (setting [30]) and 0.038 in data set [1] (setting [31]). The IC50 in data set [1] is 540 nM.

As for `C=CCn1c(=Cc2cccc[n+]2C)sc(=C2Sc3ccc(Cl)cc3N2C)c1=O.Cc1ccc(S(=O)(=O)[O-])cc1` [IV (h), 2-[{5-(5-chloro-3-methyl-2(3H)-benzothiazolylidene)-4-oxo-3-(2-propenyl)-2-thiazolidinylidene}methyl]-1-methylpyridinium=p-toluenesulfonate], the “OD level” value was determined as 0.352 in data set [1] (setting [22]); 0.368 in data set [1] (setting [23]); 0.375 in data set [1] (setting [24]); 0.423 in data set [1] (setting [25]); 0.277 in data set [1] (setting [26]); 0.140 in data set [1] (setting [27]). For the same compound, the “OD level” value in data set [1] (setting [28]) is 0.079; in data set [1] (setting [29]), 0.039; in data set [1] (setting [30]), 0.029; in data set [1] (setting [31]), 0.034. Moreover, the IC50 in data set [1] is 270 nM.
